Patent publication US12661355B2, “Compounds and methods for inducing UCP1 expression” (The Regents of the University of California, priority 2020, dated 2026)

Legend:
AKAP1 = target: T1, AKAP1 (Mus musculus, UniProt O08715); assay: Drug Affinity Responsive Target Stability (DARTS) in BAT or brown adipocyte extracts, AKAP1; type: binding; conditions: mouse brown adipocyte extracts, 1 h, 20 μM (CL316,243 20 nM)
T1 construct: from tissue; host or cells: mouse brown adipose tissue (BAT) lysate; also mouse brown adipocyte extracts
T1 sequence (O08715 30-857): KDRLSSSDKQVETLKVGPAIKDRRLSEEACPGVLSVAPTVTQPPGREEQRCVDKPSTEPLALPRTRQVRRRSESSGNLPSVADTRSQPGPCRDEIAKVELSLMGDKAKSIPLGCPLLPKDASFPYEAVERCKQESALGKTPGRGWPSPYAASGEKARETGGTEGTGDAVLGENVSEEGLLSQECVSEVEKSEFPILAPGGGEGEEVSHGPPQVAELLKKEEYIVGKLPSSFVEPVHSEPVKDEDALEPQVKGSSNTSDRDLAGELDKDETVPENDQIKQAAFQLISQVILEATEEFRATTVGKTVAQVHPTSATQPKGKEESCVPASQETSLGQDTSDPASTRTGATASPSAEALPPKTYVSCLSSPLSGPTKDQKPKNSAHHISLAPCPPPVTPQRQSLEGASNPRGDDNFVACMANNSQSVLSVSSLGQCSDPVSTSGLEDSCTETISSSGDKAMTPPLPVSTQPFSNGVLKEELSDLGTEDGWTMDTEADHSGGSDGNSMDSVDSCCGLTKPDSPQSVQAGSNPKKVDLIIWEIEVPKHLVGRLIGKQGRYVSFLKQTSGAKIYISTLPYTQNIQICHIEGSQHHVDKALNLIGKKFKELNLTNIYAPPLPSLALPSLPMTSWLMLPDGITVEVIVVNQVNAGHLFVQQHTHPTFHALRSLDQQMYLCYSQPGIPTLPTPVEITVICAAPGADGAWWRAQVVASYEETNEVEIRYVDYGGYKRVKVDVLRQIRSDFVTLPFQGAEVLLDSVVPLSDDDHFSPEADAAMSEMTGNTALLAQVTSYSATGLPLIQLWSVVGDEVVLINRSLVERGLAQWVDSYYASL
Method: […] assays were performed according to known methods. Briefly, BAT or cells within a 10 cm dish were lysed with 600 μl M-PER buffer containing protease and phosphatase inhibitors. Debris was pelleted by centrifugation at 18,000 g for 10 min at 4° C., and the lysates were harvested and supplemented with TNC buffer (50 mM Tris-HCl, 50 mM NaCl, 10 mM CaCl2). The lysates were split into two tubes and treated with either vehicle or 20 μM Z160 for 1 h at room temperature. For experiment with BAT, 100 μg of lysate was incubated with different Z160 concentrations. Different concentrations of pronase (from 1:100 to 1:10,000 dilution from a 1.25 mg/ml pronase stock) were incubated with the samples for 30 min at room temperature and the reaction was stopped with SDS loading buffer followed immediately by heating at 70° C. for 10 min. Protein lysates were separated by SDS-PAGE and transferred to a nitrocellulose membrane. After blocking in 5% milk, 0.1% Tween-20 in Tris-buffered saline (TBS), primary antibody was incubated overnight at 4° C. in 5% bovine serum albumin and 0.1% Tween-20 in TBS. Primary antibodies against AKAP1 (5203, Cell Signaling), AKAP13 (39715, One World Lab), GAPDH (GTX100118, Genetex), OPA1 (39557, One World Lab), PKA C-α (4782, Cell Signaling), PKA RII-β (ab75993, Abcam), were used at 1:2000. A goat anti-rabbit secondary antibody (sc-2030, Santa Cruz Biotechnology, Inc) was used at a 1:10,000 dilution for 1 h at room temperature in 5% milk and 0.1% Tween-20 in TBS.
The PKA tetramer consists of two catalytic and two regulatory subunits. In the mouse, these are catalytic subunits C-α and C-β, and regulatory subunits RI and RII, each with α and β isoforms (RI-α, RI-β, RII-α, RII-β). PKA is also bound to a family of anchoring proteins, A-kinase anchoring proteins (AKAPs), which allow the compartmentalization of cAMP signaling. To investigate whether Z160 binds PKA complex proteins, two techniques were applied both of which rely on ligand-induced alterations in protein stability: Cellular Thermal Shift Assay (CETSA) and Drug Affinity Responsive Target Stability (DARTS). CETSA is based on the principle that ligand binding will change the temperature at which a protein starts to unfold and aggregate, while DARTS relies on the protection of a protein from proteolysis upon specific binding to a small molecule.
To provide further evidence for an interaction between Z160 and AKAP1, DARTS assays were employed. Lysates from brown fat were treated with different Z160 concentrations for 1 h followed by pronase digestion and immunoblotting. […] The effect of Z160 on AKAP1 was confirmed using mouse brown adipocyte extracts (FIG. 15A).

Ucp1 = assay: Gene expression by qPCR in immortalized brown adipocytes; type: cell-based, mouse; conditions: for effect of antagonist on induction of Ucp1 mRNA by Z160: 20 μM antagonist 1 h prior to and during overnight 10 μM Z160
Method: Primary brown adipocytes were isolated according to known methods. An established mouse brown adipocyte cell line was obtained from Dr. Bruce Spiegelman (Dana-Farber Cancer Institute, Boston, USA). To differentiate primary and immortalized brown adipocytes, cells were grown until confluency in DMEM containing 10% FBS, 25 mM glucose 1 mM pyruvate, 2 mM glutamine, 20 nM insulin, 1 nM T3, and antibiotics. Once confluent (day 0), differentiation was induced by supplementing the medium with 0.5 mM IBMX, 0.5 μM dexamethasone, and 0.125 mM indomethacin, for 2 days. Differentiation was continued in the original medium (without IBMX, dexamethasone and indomethacin) for 7-10 days.
TScreening was conducted at the UCLA Molecular Screening Shared Resource using automated instruments Immortalized brown adipocytes were differentiated in T225 flasks and plated in Matrix 384-well plates (26,000 cells per well) with white flat bottom (ThermoScientific) using trypsin and collagenase type II (Sigma C6885). The small molecule libraries screened were a BioMol library (204 compounds), an FDA-approved drug library (1120 compounds), a Microsource spectrum collection (2000 compounds), and a druggable compound set (8000 compounds). Molecules were delivered at 10 μM final concentration in DMSO. The screen was performed in duplicate on different days. After 18 h, luciferase activity was measured with Bright-Glo luciferase assay system and an LJL instrument. Data were normalized to the basal response (100% activity) in the presence of DMSO. Following the primary screen, 92 molecules were selected for validation and used to treat brown adipocyte cells plated in a 96-well plate overnight. RNA was extracted with an SV 96 Total RNA Isolation System (Promega). Compounds used for follow-up studies were identified using search tools available from Molport (molport.com), and ordered from the same company.
(§1) RNA levels were measured by qPCR according to known methods. Briefly, RNA was extracted with TRIzol (Invitrogen) and reverse transcribed with iScript (Bio-Rad). Real-time PCR analysis was performed with a CFX Connect (Bio-Rad).
Mouse RNA levels were measured by qPCR according to known methods. Data were normalized to B2m and Tbp reference genes. Human RNA was extracted using an RNA Mini Plus kit (Zymo) and gene expression determined by Taqman assay. The 1-step qPCR was run on a QuantStudio 12K Flex Real Time PCR System (ThermoFisher) using the following protocol: 50° C. for 5 minutes, 95° C. for 20 seconds, 40 cycles of 95° C. for 15 seconds and 60° C. for 60 seconds. Data were normalized to PPIA and PSMB2 reference genes. For global gene expression analysis, RNA isolated from brown adipocytes treated with compounds as indicated (four biological replicates) was hybridized to Illumina mouse Ref 8 V2.0 bead chips at the University of California, Los Angeles Neuroscience Genomics Core as previously described. Data were processed with GenomeStudio V2011.1 using the quantile normalization, background subtraction, and a present call of P<0.05.

PKA = PKA activity ELISA, cell or tissue lysates treated 30 min; type: biochemical, mouse; conditions: cell lysates, 500 μM H-89 10 min, then 50 μM Z160 30 min
Method: PKA kinase activity was measured with an ELISA that utilized a synthetic peptide as substrate for PKA and a polyclonal antibody that recognizes the phosphorylated form of the substrate (ab139435, Abcam). PKA activity was measured in lysates from cultured brown adipocytes, mouse BAT, or liver. Cells and tissues were lysed in 20 mM MOPS, 5 mM EGTA, 2 mM EDTA, and 0.1% Triton X-100 supplemented with protease and phosphatase inhibitor as described above. Protein concentration was determined by Bradford assay and 10 μg of cells, 0.25 μg of BAT extract, or 0.5 μg of liver extract were assessed for PKA activation according to the manufacturer's instruction, with minor changes. Briefly, vehicle or Z160 was incubated with brown adipocyte cells overnight or with protein lysates for 30 min, followed by one wash before the primary antibody, 60 min incubation with the primary antibody, 30 min incubation with the secondary antibody, and by 10 min washing. Absorbance was measured after the substrate was added for 20-60 min, depending the intensity of the signal.

NRVM [1] = assay: Respirometry (reserve capacity) in neonatal rat ventricular myocytes; type: cell-based; conditions: 48 h 100 μM isoproterenol followed by 24 h rest
Method: (§2) Rat H9c2 cells were grown in DMEM supplemented with 10% FBS, 25 mM glucose, 1 mM pyruvate, and 2 mM glutamine Neonatal rat ventricular myocytes (NRVM) were isolated and cultured as previously described. Briefly, 2-4 day old rats were sacrificed and myocytes and fibroblasts were isolated and separated using a Percoll density gradient. Following isolation, NRVMs were plated on gelatin-coated plates in DMEM containing 10% FBS, 25 mM glucose, 1 mM pyruvate, and 2 mM glutamine The next day, FBS was replaced by 1× insulin-transferrin-selenium supplement and the cells were treated with vehicle or 10 μM Z160 for 2 days, with or without 60 μM isoproterenol or 50 μM phenylephrine.
NRVM were seeded in a Seahorse Bioscience XF96 plate and cultured for 48 h in 10% FBS. Next, cells were treated with 100 μM ISO for 48 h, followed by 24 h of 10 μM Z160. Oxygen consumption rate (OCR) was recorded in a Seahorse Bioscience XF96 analyzer before and after the sequential injection of 0.75 μM oligomycin, 0.75 μm FCCP and 0.75 μM rotenone/myxothiazol. Reserve capacity was calculated as the difference between basal respiration and FCCP response.

NRVM [2] = assay: Hypertrophic gene expression in neonatal rat ventricular myocytes; type: cell-based; conditions: agonist alone, 48 h
Method: as §2, §1

In the case of `C[C@H](Cc1ccc2c(c1)OC(C(=O)[O-])(C(=O)[O-])O2)NC[C@H](O)c1cccc(Cl)c1.[Na+].[Na+]` [CL316,243, reference compound], the “effect on AKAP1 (pronase susceptibility)” value (AKAP1) is reported as “not observed”.

For `O=S(=O)(NCCNC/C=C/c1ccc(Br)cc1)c1cccc2cnccc12` [H-89, reference compound], the “effect of antagonist on Z160 enhancement of Cidea and Elovl3 expression” value (Ucp1; 20 μM H-89 1 h prior to and during overnight 10 μM Z160) was “blunted”, the “effect of antagonist on induction of Ucp1 mRNA by Z160” value (from here on “effect of antagonist … by Z160”) (Ucp1) was “blocked the effect of Z160” and the “PKA activity and Z160 response after pre-incubation with PKA antagonist” value (PKA) was “reduced the PKA activity and negated the Z160 response”.

With `Oc1ccc(-c2nc(-c3ccncc3)c(-c3ccc(F)cc3)[nH]2)cc1` [SB202190, reference compound] the “effect of antagonist … by Z160” value (Ucp1) was “blocked the effect of Z160”.

In the case of `CC(C)NCC(O)c1ccc(O)c(O)c1` (stereo not drawn) [isoproterenol], the “reserve capacity of mitochondrial respiration” value (NRVM [1]) is reported as “decreased the reserve capacity”, the “expression of Nppa and Nppb” value (NRVM [2]) is reported as “induced the expression” and the “expression of Pln” value (NRVM [2]) is reported as “reduced expression”. The “expression of Nppa and Nppb” value (NRVM [2]; listed as ISO) was “increase” and the “expression of Pln” value (NRVM [2]; listed as ISO) was “decreasing”.

With `CNC[C@H](O)c1cccc(O)c1` [phenylephrine] the “expression of Nppa and Nppb” value (NRVM [2]) was “induced the expression”, the “expression of Pln” value (NRVM [2]) was “reduced expression” and the “expression of Nppa and Nppb” value (NRVM [2]; listed as PE) was “increase”. For the same compound, the “expression of Pln” value (NRVM [2]; listed as PE) was “decreasing”.

With `c1ccc(CC2=NCCN2)cc1` [tolazoline, reference compound] the “effect of antagonist … by Z160” value (Ucp1) was “did not prevent”.
